Measured values published in PMC4245125, “Pharmacological and Behavioral Characterization of D-473, an Orally Active Triple Reuptake Inhibitor Targeting Dopamine, Serotonin and Norepinephrine Transporters” (PLoS ONE, 2014).

Experiments:
D5 = D5 (Homo sapiens, UniProt P21918); experiment: NIMH PDSP receptor binding, D5
5HT1b = biological target: T1, 5HT1b (Homo sapiens, UniProt P28222); experiment: NIMH PDSP receptor binding, 5HT1b; settings: [3H]GR-125743, read-out: % Inhibition of Binding at 10 µM D-473
T1 construct: purchased NIMH PDSP

5HT2b = 5HT2b (Homo sapiens, UniProt P41595); experiment: NIMH PDSP receptor binding, 5HT2b; settings: [3H]LSD
Sequence of 5HT2b (P41595 whole entry): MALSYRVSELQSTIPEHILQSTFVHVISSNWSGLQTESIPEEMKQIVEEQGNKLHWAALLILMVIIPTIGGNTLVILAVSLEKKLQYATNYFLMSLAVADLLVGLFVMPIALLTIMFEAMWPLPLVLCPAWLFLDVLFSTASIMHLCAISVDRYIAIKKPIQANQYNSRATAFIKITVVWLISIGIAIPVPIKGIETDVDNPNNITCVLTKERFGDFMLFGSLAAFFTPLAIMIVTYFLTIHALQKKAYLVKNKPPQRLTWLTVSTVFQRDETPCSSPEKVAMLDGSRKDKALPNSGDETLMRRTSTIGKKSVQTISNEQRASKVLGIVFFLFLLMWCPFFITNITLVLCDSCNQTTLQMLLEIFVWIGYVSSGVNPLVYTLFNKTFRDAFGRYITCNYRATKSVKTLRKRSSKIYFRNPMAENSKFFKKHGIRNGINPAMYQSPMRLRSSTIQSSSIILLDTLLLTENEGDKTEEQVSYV

5HT2c = biological target: T2, 5HT2c (Homo sapiens, UniProt P28335); experiment: NIMH PDSP receptor binding, 5HT2c; settings: [3H]Mesulergine, read-out: % Inhibition of Binding at 10 µM D-473
T2 construct: purchased NIMH PDSP
T2 sequence (P28335 33-458): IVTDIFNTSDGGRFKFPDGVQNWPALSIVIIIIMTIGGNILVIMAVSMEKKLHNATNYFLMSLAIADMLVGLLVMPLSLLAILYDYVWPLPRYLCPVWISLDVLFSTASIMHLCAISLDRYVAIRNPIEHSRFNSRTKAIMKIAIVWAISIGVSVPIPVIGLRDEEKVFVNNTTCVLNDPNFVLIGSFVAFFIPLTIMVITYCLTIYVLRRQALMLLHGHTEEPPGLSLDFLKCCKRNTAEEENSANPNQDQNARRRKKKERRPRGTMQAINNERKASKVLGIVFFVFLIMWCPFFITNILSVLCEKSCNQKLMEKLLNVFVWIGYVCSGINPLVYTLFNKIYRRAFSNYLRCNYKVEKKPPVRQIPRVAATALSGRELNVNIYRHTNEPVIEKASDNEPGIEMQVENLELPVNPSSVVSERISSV

Alpha2B = biological target: T3, Alpha2B (Homo sapiens, UniProt P18089); experiment: NIMH PDSP receptor binding, Alpha2B; settings: [3H]Clonidine, read-out: % Inhibition of Binding at 10 µM D-473
T3 construct: purchased NIMH PDSP
T3 sequence (P18089 whole entry): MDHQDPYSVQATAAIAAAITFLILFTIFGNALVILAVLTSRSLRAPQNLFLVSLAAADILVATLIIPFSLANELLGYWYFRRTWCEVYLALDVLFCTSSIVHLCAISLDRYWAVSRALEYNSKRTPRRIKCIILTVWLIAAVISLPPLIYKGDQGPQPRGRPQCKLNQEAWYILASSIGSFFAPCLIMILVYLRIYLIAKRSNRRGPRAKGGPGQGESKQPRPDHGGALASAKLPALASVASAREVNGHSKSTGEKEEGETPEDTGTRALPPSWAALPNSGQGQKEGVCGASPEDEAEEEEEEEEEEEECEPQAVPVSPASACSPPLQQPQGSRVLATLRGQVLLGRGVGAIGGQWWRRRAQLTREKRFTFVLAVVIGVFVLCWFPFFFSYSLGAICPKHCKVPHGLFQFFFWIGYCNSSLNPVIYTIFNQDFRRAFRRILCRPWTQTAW

Beta2 = biological target: T4, Beta2 (Homo sapiens, UniProt P07550); experiment: NIMH PDSP receptor binding, Beta2; settings: [125I]Iodopindolol, read-out: % Inhibition of Binding at 10 µM D-473
T4 construct: purchased NIMH PDSP
T4 sequence (P07550 whole entry): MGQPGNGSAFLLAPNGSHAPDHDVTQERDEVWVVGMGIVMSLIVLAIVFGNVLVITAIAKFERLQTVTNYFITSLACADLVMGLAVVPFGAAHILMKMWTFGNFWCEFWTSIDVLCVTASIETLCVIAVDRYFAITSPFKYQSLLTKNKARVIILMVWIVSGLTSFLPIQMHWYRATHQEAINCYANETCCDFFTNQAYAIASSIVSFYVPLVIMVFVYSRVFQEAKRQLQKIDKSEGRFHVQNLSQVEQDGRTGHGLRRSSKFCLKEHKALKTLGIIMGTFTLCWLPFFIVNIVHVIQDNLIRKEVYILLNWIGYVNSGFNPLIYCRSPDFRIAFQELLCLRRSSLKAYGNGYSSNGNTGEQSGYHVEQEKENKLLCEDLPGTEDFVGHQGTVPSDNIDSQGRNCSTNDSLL

H1 = biological target: T5, H1 (Homo sapiens, UniProt P35367); experiment: NIMH PDSP receptor binding, H1; settings: [3H]Pyrilamine, read-out: % Inhibition of Binding at 10 µM D-473
T5 construct: purchased NIMH PDSP
T5 sequence (P35367 whole entry): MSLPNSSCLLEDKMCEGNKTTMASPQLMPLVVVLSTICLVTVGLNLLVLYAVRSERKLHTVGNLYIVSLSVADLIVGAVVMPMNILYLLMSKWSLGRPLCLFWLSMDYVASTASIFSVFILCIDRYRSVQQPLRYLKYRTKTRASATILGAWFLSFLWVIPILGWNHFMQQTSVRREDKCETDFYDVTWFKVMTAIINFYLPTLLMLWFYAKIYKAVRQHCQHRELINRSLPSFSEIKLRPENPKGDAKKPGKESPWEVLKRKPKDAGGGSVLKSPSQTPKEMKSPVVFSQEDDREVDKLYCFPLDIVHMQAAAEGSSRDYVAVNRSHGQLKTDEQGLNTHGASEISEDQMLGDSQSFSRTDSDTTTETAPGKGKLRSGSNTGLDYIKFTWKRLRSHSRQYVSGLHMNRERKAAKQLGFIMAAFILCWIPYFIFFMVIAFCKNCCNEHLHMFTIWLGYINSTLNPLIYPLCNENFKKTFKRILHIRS

H3 = biological target: T6, H3 (Homo sapiens, UniProt Q9Y5N1); experiment: NIMH PDSP receptor binding, H3; settings: [3H]Alpha-methyl Histamine, read-out: % Inhibition of Binding at 10 µM D-473
T6 construct: purchased NIMH PDSP

µ-Opioid = biological target: T7, µ-Opioid (Homo sapiens, UniProt P35372); experiment: NIMH PDSP receptor binding, µ-Opioid; settings: [3H]Diprenorphine, read-out: % Inhibition of Binding at 10 µM D-473
T7 construct: purchased NIMH PDSP

M1 = biological target: T8, M1 (Homo sapiens, UniProt P11229); experiment: biochemical; settings: read-out: % Inhibition of Binding at 10 µM D-473
T8 construct: purchased NIMH PDSP
T8 sequence (P11229 whole entry): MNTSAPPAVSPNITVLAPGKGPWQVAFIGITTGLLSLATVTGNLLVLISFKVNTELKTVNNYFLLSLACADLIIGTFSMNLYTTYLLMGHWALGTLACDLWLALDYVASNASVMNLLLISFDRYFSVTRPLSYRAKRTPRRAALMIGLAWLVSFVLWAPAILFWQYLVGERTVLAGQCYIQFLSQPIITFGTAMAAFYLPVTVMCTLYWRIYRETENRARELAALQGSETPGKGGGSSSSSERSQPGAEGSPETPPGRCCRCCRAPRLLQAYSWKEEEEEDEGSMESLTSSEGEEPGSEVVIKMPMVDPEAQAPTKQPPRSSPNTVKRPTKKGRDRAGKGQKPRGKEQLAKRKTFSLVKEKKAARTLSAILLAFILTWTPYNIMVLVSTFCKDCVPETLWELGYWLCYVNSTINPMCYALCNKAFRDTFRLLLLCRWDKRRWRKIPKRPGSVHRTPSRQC

M2 = biological target: T9, M2 (Homo sapiens, UniProt P08172); experiment: biochemical; settings: read-out: % Inhibition of Binding at 10 µM D-473
T9 construct: purchased NIMH PDSP

M4 = biological target: T10, M4 (Homo sapiens, UniProt P08173); experiment: biochemical; settings: read-out: % Inhibition of Binding at 10 µM D-473
T10 construct: purchased NIMH PDSP
T10 sequence (P08173 whole entry): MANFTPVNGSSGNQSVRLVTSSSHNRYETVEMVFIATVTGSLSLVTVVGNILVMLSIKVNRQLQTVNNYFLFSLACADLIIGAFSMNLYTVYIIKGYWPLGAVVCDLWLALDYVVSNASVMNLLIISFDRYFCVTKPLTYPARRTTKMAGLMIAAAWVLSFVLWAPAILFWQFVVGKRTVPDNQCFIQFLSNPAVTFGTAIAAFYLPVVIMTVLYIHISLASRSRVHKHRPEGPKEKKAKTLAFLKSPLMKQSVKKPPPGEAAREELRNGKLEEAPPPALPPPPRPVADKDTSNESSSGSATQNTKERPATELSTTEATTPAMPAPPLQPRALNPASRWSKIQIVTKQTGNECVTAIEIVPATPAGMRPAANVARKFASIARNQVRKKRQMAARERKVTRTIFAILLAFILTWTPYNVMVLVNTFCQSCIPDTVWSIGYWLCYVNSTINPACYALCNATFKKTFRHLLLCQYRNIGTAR

M5 = biological target: T11, M5 (Homo sapiens, UniProt P08912); experiment: biochemical; settings: read-out: % Inhibition of Binding at 10 µM D-473
T11 construct: purchased NIMH PDSP
T11 sequence (P08912 whole entry): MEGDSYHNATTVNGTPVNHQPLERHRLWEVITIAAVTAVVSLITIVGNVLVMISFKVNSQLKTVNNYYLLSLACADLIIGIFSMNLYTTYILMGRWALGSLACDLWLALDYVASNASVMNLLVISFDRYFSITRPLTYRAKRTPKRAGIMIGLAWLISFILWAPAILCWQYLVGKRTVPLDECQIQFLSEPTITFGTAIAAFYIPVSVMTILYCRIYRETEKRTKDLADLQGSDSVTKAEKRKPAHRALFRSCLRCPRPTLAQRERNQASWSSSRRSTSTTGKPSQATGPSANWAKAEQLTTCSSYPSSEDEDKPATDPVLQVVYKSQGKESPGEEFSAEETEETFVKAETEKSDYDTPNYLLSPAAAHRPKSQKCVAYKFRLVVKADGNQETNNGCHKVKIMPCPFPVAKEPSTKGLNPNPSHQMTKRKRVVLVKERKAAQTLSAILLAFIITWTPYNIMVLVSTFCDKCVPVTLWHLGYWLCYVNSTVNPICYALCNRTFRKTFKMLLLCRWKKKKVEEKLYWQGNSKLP

[1] = tested on: extracellular DA, 5-HT, NE and metabolites in the medial prefrontal cortex (mPFC); experiment: Microdialysis in medial prefrontal cortex, monoamines and metabolites; assay type: in vivo, rat; settings: 10 mg/kg i.p.
Experimental: Adult male Sprague-Dawley rats (Harlan, Indianapolis, IN) weighing between 250 and 350 g were used for all experiments. Rats were housed in a temperature and humidity controlled room with 12 hr light/dark cycles with food and water available ad libitum. Adequate measures were taken to prevent animal pain and discomfort. All animals were treated as approved by the University of Michigan Unit for Laboratory Animal Medicine (ULAM) and in accordance with the National Institute of Health (NIH) Guidelines for the Care and Use of Laboratory Animals.
Rats were anesthetized with using an isoflurane vaporizer that was interfaced to a model 963 Ultra Precise stereotaxic instrument with 0.1 mm resolution (David Kopf Instruments, Tujunga, CA). Concentrically designed microdialysis probes (1 mm dialyzing length) were built in house then implanted bilaterally into the dorsal lateral striatum (DLS) and the medial prefrontal cortex (mPFC) according to the following coordinates from bregma and dura (in mm): AP +1, ML +3.3, DV –5.7 and AP +3, ML −0.5, DV −5, respectively (Paxinos and Watson, 2007). […] 1 mm probes were selected for higher spatial resolution and lower tissue damage compared to larger probes. Probes were secured to the skull by acrylic dental cement and metallic screws. Following surgery, rats were allowed to recover and experiments were run 24 hr after probe implantation. Microdialysis probes were flushed at a flow rate of 2 µl/min with aCSF (composition in mM: CaCl2 1.2; KCl 2.7, NaCl 148 and MgCl2 0.85) for 2 hr using a Chemyx Fusion 400 syringe pump (Chemyx, Stafford, TX). Perfusion flow rate was then reduced to 1 µl/min and samples were collected every 10 min. Baseline values were collected for 50 min and then the drug D-473 was injected (10 mg/kg, i.p.) and samples were collected for an additional 2 h. When experiments were completed, animals were euthanized and then brains were extracted and frozen at −80°C until histology.
Dopamine, norepinephrine (NE), serotonin (5HT), DOPAC, homovanillic acid (HVA) and 5-hydroxyindole acetic acid (5-HIAA) were analyzed using a benozyolation derivitization LC-MS method recently described by our laboratory. Briefly, 10 µl dialysate samples were derivatized by adding 5 µl of 100 mM sodium tetraborate, 5 µl of 2% benzoyl chloride in acetonitrile, and then 5 µl of a stable ^13C benzoylated isotope internal standard mixture was then added to improve quantitation. A Thermo Fisher Accela UHPLC (Waltham, MA) system automatically injected 5 µl of the sample onto a Waters (Milford, MA) HSS T3 reverse phase HPLC column (1 mm X 100 mm, 1.8 µm). Mobile phase A consisted of 10 mM ammonium formate and 0.15% formic acid. Mobile phase B was pure acetonitrile. Analytes were detected by an Thermo Fisher TSQ Quantum Ultra triple quadrupole mass spectrometer operating in multiple reaction monitoring (MRM) mode. The assay limits of detection were (nM in dialysate) for DA, 0.3; NE, 0.2; 5HT, 0.1; HVA, 0.5; DOPAC, 2; and 5HIAA, 5. […] Average standard deviation in above basal levels was 18%.
All neurochemical data were transformed into percent baseline with baseline values all averaging 100%. Statistical analysis was performed by t-test analysis of every point relative to baseline values (i.e. 100%) using Prism 6 (Graphpad Software Inc, La Jolla, CA). P values <0.05 were considered to be statistically significant.

[2] = tested on: CNS GPCR receptors and ion channels; experiment: CNS broad receptors screening, summary statements by receptor family; assay type: binding
hSERT = hSERT (Homo sapiens, UniProt P31645); experiment: Inhibition of [3H]5-HT uptake by cloned human SERT in HEK293 cells
Sequence of hSERT (P31645 whole entry): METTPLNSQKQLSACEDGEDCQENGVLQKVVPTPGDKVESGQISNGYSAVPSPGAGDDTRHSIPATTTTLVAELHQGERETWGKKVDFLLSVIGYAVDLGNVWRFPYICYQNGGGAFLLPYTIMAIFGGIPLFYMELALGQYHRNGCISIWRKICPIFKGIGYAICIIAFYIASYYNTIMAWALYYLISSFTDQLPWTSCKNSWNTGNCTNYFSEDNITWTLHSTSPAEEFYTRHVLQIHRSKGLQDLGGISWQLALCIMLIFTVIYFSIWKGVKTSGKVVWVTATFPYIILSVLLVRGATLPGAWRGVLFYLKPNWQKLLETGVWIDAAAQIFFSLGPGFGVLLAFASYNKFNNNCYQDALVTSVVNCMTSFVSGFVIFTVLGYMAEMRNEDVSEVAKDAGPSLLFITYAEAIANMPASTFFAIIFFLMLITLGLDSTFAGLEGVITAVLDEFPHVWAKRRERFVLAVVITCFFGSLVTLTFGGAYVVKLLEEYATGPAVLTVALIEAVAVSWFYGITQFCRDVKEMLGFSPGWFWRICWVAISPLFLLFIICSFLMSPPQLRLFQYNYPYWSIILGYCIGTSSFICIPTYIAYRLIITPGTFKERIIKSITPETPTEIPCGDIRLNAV

Sequence of D5 (P21918 whole entry): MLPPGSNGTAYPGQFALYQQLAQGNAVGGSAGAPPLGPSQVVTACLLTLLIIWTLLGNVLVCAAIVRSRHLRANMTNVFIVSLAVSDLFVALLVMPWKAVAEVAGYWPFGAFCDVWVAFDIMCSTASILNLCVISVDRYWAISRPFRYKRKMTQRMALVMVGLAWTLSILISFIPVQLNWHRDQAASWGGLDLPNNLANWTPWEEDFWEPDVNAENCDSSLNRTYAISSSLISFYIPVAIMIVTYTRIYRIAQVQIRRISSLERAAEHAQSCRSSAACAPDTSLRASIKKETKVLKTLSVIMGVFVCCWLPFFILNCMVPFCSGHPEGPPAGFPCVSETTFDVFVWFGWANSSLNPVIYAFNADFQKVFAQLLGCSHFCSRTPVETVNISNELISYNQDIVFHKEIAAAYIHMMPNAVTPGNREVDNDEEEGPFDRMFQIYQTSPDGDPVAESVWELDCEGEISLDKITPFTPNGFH

`COc1ccc(CN[C@@H]2CO[C@H](C(c3ccc(F)cc3)c3ccc(F)cc3)C[C@H]2O)cc1` [Compound D-473, (2S,4R,5R)-2-(bis(4-fluorophenyl)methyl)-5-((4-methoxybenzyl)amino)tetrahydro-2H-pyran-4-ol] was tested, and the inhibition at 10 µM (D5; [3H]SCH 23390, 10 µM, read-out: % Inhibition of Binding at 10 µM D-473) was 74.7%, the Ki (D5; [3H]SCH 23390, secondary assay, read-out: Ki for D-473) was 1570 nM and the inhibition at 10 µM (5HT1b) was 14.2%. The inhibition at 10 µM (5HT2b; 10 µM, read-out: % Inhibition of Binding at 10 µM D-473) was 70.8%, the Ki (5HT2b; secondary assay, read-out: Ki for D-473) was 597 nM and the inhibition at 10 µM (5HT2c) was 45.4%. The inhibition at 10 µM (Alpha2B) was 25.4%, the inhibition at 10 µM (Beta2) was -4.4% and the inhibition at 10 µM (H1) was 2.8%. For the same molecule, the inhibition at 10 µM (H3) was -14.7%, the inhibition at 10 µM (µ-Opioid) was 20.5% and the inhibition at 10 µM (M1) was 15%. For the same molecule, the inhibition at 10 µM (M2) was -9.5%, the inhibition at 10 µM (M4) was -16.7% and the inhibition at 10 µM (M5) was 3.2%. The “Reductions in dialysate DOPAC” value ([1]; Figure 8, region not specified) was “up to 35%”, the “Change in the level of 5-HIAA” value ([1]; region not specified (mPFC and DLS studied)) was “did not observe any change” and the “Effect on HVA” value ([1]; mPFC) was “lack of effect”. The “Increase of 5-HT” value ([1]; mPFC) was over 3 fold, the “Increase of DA” value ([1]; mPFC) was 4 fold and the “Increase of NE” value ([1]; mPFC) was over 5 fold. For the same molecule, the “Reduction of DOPAC, maximal” value ([1]; mPFC) was 35–40%, the “Extracellular 5-HT at the end of two hours, percent baseline” value ([1]; mPFC, baseline 100%) was 150% and the “Extracellular 5HT, maximal, percent baseline” value ([1]; mPFC, baseline 100%) was 339%. For the same molecule, the “Extracellular DA at the end of two hours, percent baseline” value ([1]; mPFC, baseline 100%) was 122%, the “Extracellular DA, maximal, percent baseline” value ([1]; mPFC, baseline 100%) was 394% and the “Extracellular NE at the end of two hours, percent baseline” value ([1]; mPFC, baseline 100%) was 173%. The “Extracellular NE, maximal, percent baseline” value ([1]; mPFC, baseline 100%) was 547%, the “Affinity for alpha adrenergic or beta adrenergic receptors subtypes” value [2] was “did not show any appreciable affinity” and the “Affinity for muscarinic receptor subtypes” value [2] was “Lack of any affinity”. The “Affinity for opioid receptors, calcium channel and GABA receptor” value [2] was “did not show any affinity”, the Ki ([2]; dopamine and serotonin receptor subtypes other than D1, D5, 5HT2b, read-out: Ki at dopamine and serotonin receptor subtypes (generally)) was over 10000 nM and the Ki (hSERT) was 9.18 ± 1.69 nM. The “Potency at SERT relative to Fluoxetine” value (hSERT; hSERT uptake inhibition) was “almost one and a half fold greater”.
